According to patent US20220213440A1, “DENDRITIC CELL IMMUNOTHERAPY” (BAYLOR COLLEGE OF MEDICINE, priority 2015, published 2022):

How the values were obtained:
[1] = system: AIMp1 and sCTLA-4 secretion from mouse DC; assay: AIMp1 / sCTLA-4 Western blot of mouse DC culture supernatants; type: cell-based; conditions: mouse DC (not shown), 1 μg/ml, absence of antigenic loading
Source text: (§1) FIGS. 1A-F: Concurrent loading of antigenically related MHC Class I and II determinants promote TH1-polarization of mouse DC. […] This effect was abrogated by siRNA knockdown of AIMp1. Antigens were derived from the RAW264.7 cell line. Heterologous Class II antigens were derived from the 4T1 breast cancer cell line. Y-axis: fold change in IL-12p70 secretion from unloaded (UL) DC. […] Top panel: AIMp1 release following homologous loading with RAW264.7 antigenic determinants. Heterologous lysate derived from 4T1. Bottom panel: AIMp1 release following homologous loading with primary SV antigenic determinants. Heterologous lysate derived from primary prostate. […] Shown: sCTLA-4 release following homologous loading with RAW264.7 antigenic determinants. Heterologous lysate derived from 4T1. […] Data shown are indicative of typical AIMp1 knockdown of >70%. […] This effect was abrogated by treatment of homologously-loaded DC with AIMp1 siRNA. Heterologous lysate was primary prostate. Y-axis: fold change in total cell count in comparison to unloaded (UL) DC. […]
Quantitation of Western Blot Images—Western blot chemiluminescent signal was detected using a ChemiDoc XRS digital imaging system running Image Lab software Version 2.0.1 (Bio-Rad Laboratories, Hercules, Calif.). All Western blots were quantitated by densitometry of Ponceau S (Sigma-Aldrich) stained membranes. […]

[2] = system: sCTLA-4 and AIMp1 secretion from human DC; assay: sCTLA-4 and AIMp1 western blots of human DC culture supernatants with TLR agonistic stimuli; type: cell-based; conditions: 1 μg/ml, absence of antigenic loading
H2-DM^−/− DC = assay: AIMp1 / sCTLA-4 secretion from H2-DM-/- DC loaded with class I peptide; type: cell-based, mouse
Source text: FIGS. 3A-G: AIMp1/sCTLA-4 modulation is dependent upon binding of homologous class I and II peptide to MHC. (A) sCTLA-4 (right) and AIMp1 (left) western blots of wild type (top) and H2-DM^−/− (bottom) murine DC culture supernatants following single, homologous, or heterologous loading with SV mRNA and lysate. Representative experiment shown. (B) Densitometry quantitation of AIMp1/sCTLA-4 ratios of the data depicted in (a) over three independent experiments. Top panel: wild type DC. Bottom panel: H2-DM^−/− DC. […] (Glycine Pair: Class I=SEQ ID NO: 3, Class II=SEQ ID NO: 2; Methionine Pair: Class I=SEQ ID NO: 8, Class II=SEQ ID NO: 9) (F) Densitometric quantitation of the data presented in (e). […]
Preparation of Vaccine Materials, Loading of DC, and In vitro CoCulture—Seminal vesicle (SV) and prostate were harvested from 10 week old male mice and immediately frozen at −80° C. […] To generate mRNA, total RNA was isolated from homogenized tissue using Trizol reagent (Life Technologies, Carlsbad, Calif.) according to the manufacturer's instructions, and mRNA was isolated from total RNA using an Oligotex mRNA Maxi Kit (Qiagen, Valencia, Calif.) also according to the manufacturer's instructions. mRNA was quantitated with a Nanodrop spectrophotometer (Thermo Scientific) and integrity was verified by gel electrophoresis. […]

CD8^+ T-cells = assay: In vitro co-culture of loaded mouse DC with splenocytes, T-cell populations; type: cell-based; conditions: loaded H2-DM^−/− DC with wild type syngeneic splenocytes
Source text: as §1, with “prostate.” for “prostate. Y-axis: fold change in total cell count in comparison to unloaded (UL) DC.”
FIGS. 3A-G: AIMp1/sCTLA-4 modulation is dependent upon binding of homologous class I and II peptide to MHC. […] (B) Densitometry quantitation of AIMp1/sCTLA-4 ratios of the data depicted in (a) over three independent experiments. […] (Glycine Pair: Class I=SEQ ID NO: 3, Class II=SEQ ID NO: 2; Methionine Pair: Class I=SEQ ID NO: 8, Class II=SEQ ID NO: 9) (F) Densitometric quantitation of the data presented in (e). […]

Substance	sCTLA-4 or AIMp1 secretion with TLR agonist [1]	sCTLA-4 or AIMp1 secretion with TLR agonist [2]	AIMp1 release (H2-DM^−/− DC; SIINFEKL as control)	sCTLA-4 secretion (H2-DM^−/− DC; dose-dependent)	CD8^+CD25^+ T cells after coculture (CD8^+ T-cells)
flagellin	Neither poly(I:C), LPS, flagellin, nor CpG-ODN altered sCTLA-4 or AIMp1 secretion	Neither poly(I:C), LPS, flagellin, nor CpG-ODN altered sCTLA-4 or AIMp1 secretion	–	–	–
polyinosine-polycytidylic acid [poly(I:C)]	Neither poly(I:C), LPS, flagellin, nor CpG-ODN altered sCTLA-4 or AIMp1 secretion	Neither poly(I:C), LPS, flagellin, nor CpG-ODN altered sCTLA-4 or AIMp1 secretion	–	–	–
MRMATPLLM [H-2D^b CLIP]	–	–	Substantial AIMp1 release was observed in a dose-dependent fashion	diminution of sCTLA-4 secretion	increase in CD8^+CD25^+ T cells
